The text below walks through data of PubChem BioAssay (NCI).

Holding throughout (experiment): NCI tumour cell line growth inhibition, 48 h
The subject of assay [1] is ACHN renal.
Assay [2] deals with MOLT-4 leukemia.
For assay [3], the system named is NCI-H522 lung.
The subject of assay [4] is OVCAR-5 ovarian.
The subject of assay [5] is SF-539 CNS.
In assay [6] the test system is SK-MEL-28 melanoma.
For assay [7], the system named is SK-OV-3 ovarian.
The test system of assay [8] is SR leukemia.
Assay [9] concerns UACC-257 melanoma.
For assay [10], the system named is UACC-62 melanoma.

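Assay format: 96-well plates, 48-hour exposure. GI50 = concentration required for 50% inhibition of growth. The concentration for full growth arrest is given as TGI.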

Regarding `COc1cc(C(=O)c2cc3c(cc2C)OCO3)cc(OC)c1OC`, the GI50 in [1] is 0.289 µM; in assay [2], 0.117 µM; in [3], 0.26 µM; in [4], 0.439 µM; in assay [5] it was 0.0617 µM; in assay [6] it was 0.0879 µM. Also, the GI50 was 0.0874 µM in [7], 0.0417 µM in [8], 91.7 µM in assay [9] and 0.247 µM in assay [10]. The TGI is over 100 µM in [1]; over 100 µM in [2]; 3.9 µM in [3]; over 100 µM in assay [4]; 0.376 µM in assay [5]; over 100 µM in assay [6]. Also, the TGI in assay [7], in [8], in assay [9] and in assay [10] was over 100 µM in each case.
Regarding `COc1ccc(-c2nc(-c3nc4ccc(OC)cc4[nH]3)cc3c2[nH]c2ccccc23)cc1`, the GI50 is 2.33 µM in assay [1]; 1.98 µM in [2]; 2.7 µM in assay [3]; over 100 µM in assay [4]; 9.29 µM in [5]; over 100 µM in assay [6]. Moreover, the GI50 in assay [7] was over 100 µM; in assay [8] it was 4.29 µM; in [9], 4.34 µM; in assay [10] it was 2.75 µM. Also, the TGI in assay [1], in assay [2], in [3], in [4], in assay [5] and in [6] was over 100 µM each time. Further, the TGI in [7], in assay [8], in [9] and in assay [10] was over 100 µM each time.
